The source of these data is article PMC8976073 (Nature Communications, 2022).

The target in test [1] is T1, FPR2 (Homo sapiens, UniProt P25090).
T1 construct: expressed in transfected cells; host or cells: HEK293F cells, pTT5 vector, co-transfected with GαΔ6qi4myr (1:2 w/w)
T1 sequence (P25090 1-351): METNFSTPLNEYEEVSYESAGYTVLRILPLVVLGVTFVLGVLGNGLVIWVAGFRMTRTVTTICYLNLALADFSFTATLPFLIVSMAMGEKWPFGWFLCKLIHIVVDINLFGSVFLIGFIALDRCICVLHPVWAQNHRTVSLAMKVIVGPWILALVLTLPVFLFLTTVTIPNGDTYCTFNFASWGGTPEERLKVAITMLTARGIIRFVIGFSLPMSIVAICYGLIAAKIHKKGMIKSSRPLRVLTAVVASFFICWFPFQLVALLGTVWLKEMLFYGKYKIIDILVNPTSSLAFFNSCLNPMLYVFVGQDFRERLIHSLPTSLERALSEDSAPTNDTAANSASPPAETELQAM
Description: Competition binding: inhibition of WK(FITC)YMVm binding to FPR2 (wild type and mutants), HEK293F cells. The conditions noted are these: FPR2 WT, mean ± SEM. The method, then:
(§1) The genes of wild-type FPR1 and FPR2 and mutants with a Flag tag at the N termini were cloned into pTT5 vector (Invitrogen) and expressed in HEK293F cells (Invitrogen). Cells were harvested 48 h post transfection with 1 μg ml^−1 plasmid. Cell-surface expression of the receptors was measured by mixing 10 μl cells with 15 μl of TBS buffer supplemented with 4% BSA, 20% (v/v) viability-staining solution 7-AAD (Invitrogen, Cat#00-6993-50), and 0.1% (v/v) anti-FLAG M2-FITC antibody (Sigma, Cat#F4049) at 4 °C for 20 min. After incubation, 175 μl of TBS buffer was added and the fluorescent signal was measured using a flow-cytometry reader (Guava easyCyte HT, Millipore). Then, the cells were washed and resuspended to a final concentration of 1 × 10^6 cells per ml in Hanks’ Balanced Salt Solution (HBSS) buffer supplemented with 0.5% bovine serum albumin (BSA) and 20 mM HEPES, pH 7.4.
(§2) The mean fluorescent intensity of each well was then read by the FCM reader. Total binding and nonspecific binding were measured in the absence and presence of the unlabeled ligand (200 μM WKYMVm), respectively. […] Mean fluorescent-intensity values were measured by flow cytometry. Data were analyzed using Prism 8.0 (GraphPad software).

Test [2] concerns FPR2. Particulars: cited from earlier work. An excerpt: The role of these residues in determining ligand selectivity was investigated by mutagenesis studies.
Test [3] has as its target T2, FPR2 (Homo sapiens, UniProt P25090, S211L).
T2 construct: expressed in transfected cells; host or cells: HEK293F cells, pTT5 vector
Briefly: Competition binding: inhibition of WK(FITC)YMVm binding to FPR2 (wild type and mutants), HEK293F cells. Particulars: FPR2 Construct 2, mean ± SEM. As to the method:
as §1, §2

In test [4] the target is T1, FPR2. Briefly: Inositol-phosphate (IP) accumulation assay, FPR2 (wild type and mutants) with chimeric GαΔ6qi4myr in HEK293F cells. Format: cell-based. Particulars: FPR2 WT; mean ± SEM; SEM. The method, then: Flag-tagged wild-type FPR1 and FPR2 and mutants were cloned into the pTT5 vector and expressed in HEK293F cells. Cells were cotransfected with the plasmids of receptor and a chimeric Gα protein GαΔ6qi4myr, which redirects the Gαi signaling pathway to the Gαq phospholipase-C pathway, at a ratio of 1:2 (w/w), and were harvested 48 h post transfection. The cell-surface expression was measured as described above.
The IP-One Gq assay kit (Cisbio Bioassays, 62IPAPEB) was used to measure the peptide agonist-induced IP production. […] Then, the cells were supplemented with 3 μl cryptate-labeled anti-IP1 monoclonal antibody (1:20 diluted in lysis and detection buffer) and 3 μl d2-labeled IP1, and incubated at room temperature for another 1 h. […] The accumulation of IP1, EC50, and pEC50 were calculated using nonlinear regression (curve fit) according to a standard dose–response curve in GraphPad Prism 8.0 (GraphPad software).

Test [5] has as its system FPR1. Description: Competition binding: inhibition of WK(FITC)YMVm binding to FPR1 (wild type and mutants), HEK293F cells. The conditions noted are these: FPR1 F81L, F102H, Y257F and their combination. The arrangement: species or system human. As to the method:
as §1, §2

Where a SMILES comes first, the peptide text is derived from it. The star is where a group is joined. For = O=C*

T2 sequence (P25090 with tags, fused parts or gaps S211L): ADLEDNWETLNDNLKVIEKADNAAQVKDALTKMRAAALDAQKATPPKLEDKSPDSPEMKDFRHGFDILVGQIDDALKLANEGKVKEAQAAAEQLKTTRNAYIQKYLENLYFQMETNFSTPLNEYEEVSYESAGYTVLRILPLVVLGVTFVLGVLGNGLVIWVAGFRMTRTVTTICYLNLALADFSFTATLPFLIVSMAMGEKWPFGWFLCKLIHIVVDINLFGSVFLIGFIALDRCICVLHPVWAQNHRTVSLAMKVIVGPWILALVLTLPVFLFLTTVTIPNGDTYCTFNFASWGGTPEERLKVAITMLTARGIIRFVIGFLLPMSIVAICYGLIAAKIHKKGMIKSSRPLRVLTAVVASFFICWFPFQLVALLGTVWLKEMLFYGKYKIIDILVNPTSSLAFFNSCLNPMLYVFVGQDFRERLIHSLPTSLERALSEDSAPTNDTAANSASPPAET

Turning to `CC[C@H](C)[C@H](NC(=O)[C@H](CCC(=O)O)NC(=O)[C@H](CO)NC(=O)[C@@H](NC(=O)[C@H](CC(C)C)NC(=O)[C@H](CC(C)C)NC(=O)[C@H](CC(C)C)NC(=O)[C@H](CC(C)C)NC(=O)[C@H](CS)NC(=O)[C@H](CO)NC(=O)[C@H](Cc1ccccc1)NC(=O)CNC(=O)[C@H](CCCNC(=N)N)NC(=O)[C@@H]1CCCN1C(=O)[C@H](Cc1c[nH]c2ccccc12)NC(=O)[C@H](CCSC)NC=O)[C@@H](C)O)C(=O)N[C@@H](CC(=O)O)C(=O)N[C@@H](CC(C)C)C(=O)N1CCC[C@H]1C(=O)N[C@H](C(=O)N[C@@H](CCCCN)C(=O)N[C@@H](CCCNC(=N)N)C(=O)N[C@@H](CCCNC(=N)N)C(=O)N[C@@H](C)C(=O)O)C(C)C` [A2W] (For-MWPRGFSCLLLLTSEIDLPVKRRA-OH), the Ki – broadly, the dissociation constant of the complex between target and ligand, obtained from inhibition or displacement – in test [1] was 0.0468 µM.

Take “fMLFK [formylated tetrapeptide with a basic C-terminal residue]”: in test [2] (compared with fMLFE), the “binding to FPR2 (in words)” value is “more favorable for binding to FPR2”. On to `CC[C@H](C)[C@H](NC(=O)[C@H](CC(N)=O)NC(=O)[C@@H](NC(=O)[C@H](Cc1ccccc1)NC(=O)[C@H](Cc1ccc(O)cc1)NC(=O)[C@H](CCSC)NC=O)[C@@H](C)CC)C(=O)N[C@@H](CC(C)C)C(=O)N[C@H](C(=O)N[C@@H](CC(C)C)C(=O)O)[C@@H](C)O` [fM9] (For-MYFINILTL-OH), for which the values for the Ki in test [3] and in test [1] were 2.63 µM and 1.41 µM, respectively. The EC50 (commonly the concentration that produces a half-maximal response) in test [4] was 0.813 µM.

For `CC[C@H](C)[C@H](NC(=O)[C@H](CCC(=O)O)NC(=O)[C@H](CO)NC(=O)[C@@H](NC(=O)[C@H](CC(C)C)NC(=O)[C@H](C)NC(=O)[C@H](CC(C)C)NC(=O)[C@H](CC(C)C)NC(=O)[C@H](CS)NC(=O)[C@H](CO)NC(=O)[C@H](Cc1ccccc1)NC(=O)CNC(=O)[C@H](CCCNC(=N)N)NC(=O)[C@@H]1CCCN1C(=O)[C@H](C)NC(=O)[C@H](CCSC)NC=O)[C@@H](C)O)C(=O)N[C@@H](CC(=O)O)C(=O)N[C@@H](CC(C)C)C(=O)N1CCC[C@H]1C(=O)N[C@H](C(=O)N[C@@H](CCCCN)C(=O)N[C@@H](CCCNC(=N)N)C(=O)N[C@@H](CCCNC(=N)N)C(=O)N[C@@H](C)C(=O)O)C(C)C` [L11A] (For-MAPRGFSCLLALTSEIDLPVKRRA-OH), the affinity in test [1], expressed as Ki, was 0.631 µM. Still for that read-out and setting: under `CC[C@H](C)[C@H](NC(=O)[C@H](CCC(=O)O)NC(=O)[C@H](CO)NC(=O)[C@@H](NC(=O)[C@H](C)NC(=O)[C@H](CC(C)C)NC(=O)[C@H](CC(C)C)NC(=O)[C@H](CC(C)C)NC(=O)[C@H](CS)NC(=O)[C@H](CO)NC(=O)[C@H](Cc1ccccc1)NC(=O)CNC(=O)[C@H](CCCNC(=N)N)NC(=O)[C@@H]1CCCN1C(=O)[C@H](C)NC(=O)[C@H](CCSC)NC=O)[C@@H](C)O)C(=O)N[C@@H](CC(=O)O)C(=O)N[C@@H](CC(C)C)C(=O)N1CCC[C@H]1C(=O)N[C@H](C(=O)N[C@@H](CCCCN)C(=O)N[C@@H](CCCNC(=N)N)C(=O)N[C@@H](CCCNC(=N)N)C(=O)N[C@@H](C)C(=O)O)C(C)C` [L12A] (For-MAPRGFSCLLLATSEIDLPVKRRA-OH) stands 0.832 µM. In the case of Humanin [HN], in test [2], the “agonistic activity FPR2 versus FPR1 (in words)” value was “much higher agonistic activity at FPR2 than at FPR1” and the “fold higher binding affinity to FPR2 than Aβ42” value is reported as “over 15 fold”. The molecule `CC[C@H](C)[C@H](NC(=O)[C@H](CCC(=O)O)NC(=O)[C@H](CO)NC(=O)[C@@H](NC(=O)[C@H](CC(C)C)NC(=O)[C@H](CC(C)C)NC(=O)[C@H](CC(C)C)NC(=O)[C@H](CC(C)C)NC(=O)[C@H](CS)NC(=O)[C@H](CO)NC(=O)[C@H](Cc1ccccc1)NC(=O)CNC(=O)[C@H](C)NC(=O)[C@@H]1CCCN1C(=O)[C@H](C)NC(=O)[C@H](CCSC)NC=O)[C@@H](C)O)C(=O)N[C@@H](CC(=O)O)C(=O)N[C@@H](CC(C)C)C(=O)N1CCC[C@H]1C(=O)N[C@H](C(=O)N[C@@H](CCCCN)C(=O)N[C@@H](CCCNC(=N)N)C(=O)N[C@@H](CCCNC(=N)N)C(=O)N[C@@H](C)C(=O)O)C(C)C` [R4A] (For-MAPAGFSCLLLLTSEIDLPVKRRA-OH) showed a Ki in test [1] of 0.282 µM. On the same count and under the same terms, the figure for `CC[C@H](C)[C@H](NC(=O)[C@H](CCC(=O)O)NC(=O)[C@H](CO)NC(=O)[C@@H](NC(=O)[C@H](CC(C)C)NC(=O)[C@H](CC(C)C)NC(=O)[C@H](CC(C)C)NC(=O)[C@H](CC(C)C)NC(=O)[C@H](CS)NC(=O)[C@H](CO)NC(=O)[C@H](Cc1ccccc1)NC(=O)CNC(=O)[C@H](CCCNC(=N)N)NC(=O)[C@H](C)NC(=O)[C@H](C)NC(=O)[C@H](CCSC)NC=O)[C@@H](C)O)C(=O)N[C@@H](CC(=O)O)C(=O)N[C@@H](CC(C)C)C(=O)N1CCC[C@H]1C(=O)N[C@H](C(=O)N[C@@H](CCCCN)C(=O)N[C@@H](CCCNC(=N)N)C(=O)N[C@@H](CCCNC(=N)N)C(=O)N[C@@H](C)C(=O)O)C(C)C` [P3A] (For-MAARGFSCLLLLTSEIDLPVKRRA-OH) is 0.813 µM; for `CC[C@H](C)[C@H](NC(=O)[C@H](CCC(=O)O)NC(=O)[C@H](CO)NC(=O)[C@@H](NC(=O)[C@H](CC(C)C)NC(=O)[C@H](CC(C)C)NC(=O)[C@H](CC(C)C)NC(=O)[C@H](CC(C)C)NC(=O)[C@H](CS)NC(=O)[C@H](CO)NC(=O)[C@H](C)NC(=O)CNC(=O)[C@H](CCCNC(=N)N)NC(=O)[C@@H]1CCCN1C(=O)[C@H](C)NC(=O)[C@H](CCSC)NC=O)[C@@H](C)O)C(=O)N[C@@H](CC(=O)O)C(=O)N[C@@H](CC(C)C)C(=O)N1CCC[C@H]1C(=O)N[C@H](C(=O)N[C@@H](CCCCN)C(=O)N[C@@H](CCCNC(=N)N)C(=O)N[C@@H](CCCNC(=N)N)C(=O)N[C@@H](C)C(=O)O)C(C)C` [F6A] (For-MAPRGASCLLLLTSEIDLPVKRRA-OH) it is 0.1 µM. Turning to `CSCC[C@H](NC=O)C(=O)N[C@@H](CC(C)C)C(=O)N[C@@H](Cc1ccccc1)C(=O)O` [fMLF, N-formyl–Met–Leu–Phe], the “effect of mutations on binding affinity (in words)” value in test [5] is “little effect on the binding affinity”. Also, the “agonism at FPR2 (in words)” value in test [2] is on record as “weak agonist”.
